The values that follow come from patent US11878975B2, “Substituted indole compounds useful as TLR inhibitors” (BRISTOL-MYERS SQUIBB COMPANY, priority 2017, dated 2024).

By IC50 is commonly meant the concentration at which inhibition is half-maximal. High values mean a need for much substance, low ones inhibition by little substance.

Type in all cases: cell-based
One assay addresses T1, human TLR7 (Homo sapiens, UniProt Q9NYK1).
T1 construct: host or cells: HEK-Blue cells
T1 sequence (Q9NYK1 27-1049): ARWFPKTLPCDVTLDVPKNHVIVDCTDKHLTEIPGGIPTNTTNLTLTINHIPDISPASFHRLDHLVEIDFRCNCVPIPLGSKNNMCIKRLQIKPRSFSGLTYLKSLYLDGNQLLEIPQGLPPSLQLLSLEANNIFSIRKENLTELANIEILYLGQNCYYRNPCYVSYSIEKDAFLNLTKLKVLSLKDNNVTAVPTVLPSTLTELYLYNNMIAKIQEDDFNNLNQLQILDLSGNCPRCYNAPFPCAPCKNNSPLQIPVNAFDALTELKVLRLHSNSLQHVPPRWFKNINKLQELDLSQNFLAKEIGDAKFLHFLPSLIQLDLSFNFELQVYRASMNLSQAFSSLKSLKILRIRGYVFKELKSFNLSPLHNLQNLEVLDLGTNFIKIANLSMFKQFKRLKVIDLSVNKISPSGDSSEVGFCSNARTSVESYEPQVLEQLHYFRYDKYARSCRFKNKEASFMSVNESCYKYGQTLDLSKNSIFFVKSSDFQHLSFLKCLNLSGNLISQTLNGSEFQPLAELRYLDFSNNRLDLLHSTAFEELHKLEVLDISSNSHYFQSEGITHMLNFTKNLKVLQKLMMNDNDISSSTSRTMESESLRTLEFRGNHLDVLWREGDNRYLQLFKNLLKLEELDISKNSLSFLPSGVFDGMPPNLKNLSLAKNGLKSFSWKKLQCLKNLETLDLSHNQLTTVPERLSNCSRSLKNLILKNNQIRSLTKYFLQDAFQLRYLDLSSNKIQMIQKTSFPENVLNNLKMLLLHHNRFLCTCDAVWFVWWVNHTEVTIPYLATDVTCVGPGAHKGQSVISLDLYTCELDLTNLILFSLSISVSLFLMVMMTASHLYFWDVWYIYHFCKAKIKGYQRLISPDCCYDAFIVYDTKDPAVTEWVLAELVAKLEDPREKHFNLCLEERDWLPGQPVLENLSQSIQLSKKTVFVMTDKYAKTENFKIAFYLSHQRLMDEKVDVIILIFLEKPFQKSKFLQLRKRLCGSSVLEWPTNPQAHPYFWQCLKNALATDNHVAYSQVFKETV
Kind of assay: TLR7 inhibition reporter assay (HEK-Blue cells, SEAP reporter, gardiquimod stimulation). Conditions: HEK-Blue cells overexpressing human TLR7, SEAP reporter, gardiquimod 7.5 μM. In a few lines: (§1)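 HEK-Blue cells with NF-κB/AP-1-driven SEAP reporter, pre-treated 30 min at room temperature with compound (0.05 nM-50 μM). Stimulants: gardiquimod 7.5 μM (TLR7), R848 15.9 μM (TLR8) or ODN2006 5 nM (TLR9). SEAP measured after 22 h at 37° C.; percent inhibition versus agonist-plus-DMSO and known-inhibitor wells.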
On the technique in general: A reporter such as luciferase makes a cellular process visible.

The next assay addresses T2, human TLR8 (Homo sapiens, UniProt Q9NR97).
T2 construct: host or cells: HEK-Blue cells
T2 sequence (Q9NR97 27-1041): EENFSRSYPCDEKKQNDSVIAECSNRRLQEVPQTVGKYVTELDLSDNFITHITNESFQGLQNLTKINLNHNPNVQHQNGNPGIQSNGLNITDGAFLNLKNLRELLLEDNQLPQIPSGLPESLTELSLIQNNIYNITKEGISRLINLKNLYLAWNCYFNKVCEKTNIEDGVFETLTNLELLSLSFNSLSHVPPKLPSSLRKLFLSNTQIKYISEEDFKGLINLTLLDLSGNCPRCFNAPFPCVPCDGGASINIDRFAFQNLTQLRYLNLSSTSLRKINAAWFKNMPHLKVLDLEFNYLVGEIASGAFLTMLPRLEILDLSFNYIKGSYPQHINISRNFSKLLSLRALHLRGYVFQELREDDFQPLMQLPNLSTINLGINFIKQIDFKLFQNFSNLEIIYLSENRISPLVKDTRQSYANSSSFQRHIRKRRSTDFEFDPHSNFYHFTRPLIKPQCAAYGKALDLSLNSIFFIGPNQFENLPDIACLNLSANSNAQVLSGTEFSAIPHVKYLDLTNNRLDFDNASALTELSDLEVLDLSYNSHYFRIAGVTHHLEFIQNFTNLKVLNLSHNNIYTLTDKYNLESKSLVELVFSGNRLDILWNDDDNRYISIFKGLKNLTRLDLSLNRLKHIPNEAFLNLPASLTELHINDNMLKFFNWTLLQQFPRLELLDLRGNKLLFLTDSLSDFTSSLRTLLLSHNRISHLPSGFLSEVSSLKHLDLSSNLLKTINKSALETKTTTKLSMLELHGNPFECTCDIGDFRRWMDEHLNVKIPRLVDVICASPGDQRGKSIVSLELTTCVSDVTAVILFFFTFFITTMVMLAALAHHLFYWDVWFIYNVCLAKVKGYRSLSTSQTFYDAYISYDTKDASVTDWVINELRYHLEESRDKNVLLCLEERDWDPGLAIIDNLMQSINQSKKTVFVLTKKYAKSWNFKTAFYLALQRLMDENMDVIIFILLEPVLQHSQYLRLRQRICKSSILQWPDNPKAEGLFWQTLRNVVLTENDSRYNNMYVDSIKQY
Briefly: TLR8 inhibition reporter assay (HEK-Blue cells, SEAP reporter, R848 stimulation). The settings on record: HEK-Blue cells overexpressing human TLR8, SEAP reporter, R848 15.9 μM. The essentials: as §1

A further assay deals with T3, human TLR9 (Homo sapiens, UniProt Q9NR96).
T3 construct: host or cells: HEK-Blue cells
T3 sequence (Q9NR96 26-1032): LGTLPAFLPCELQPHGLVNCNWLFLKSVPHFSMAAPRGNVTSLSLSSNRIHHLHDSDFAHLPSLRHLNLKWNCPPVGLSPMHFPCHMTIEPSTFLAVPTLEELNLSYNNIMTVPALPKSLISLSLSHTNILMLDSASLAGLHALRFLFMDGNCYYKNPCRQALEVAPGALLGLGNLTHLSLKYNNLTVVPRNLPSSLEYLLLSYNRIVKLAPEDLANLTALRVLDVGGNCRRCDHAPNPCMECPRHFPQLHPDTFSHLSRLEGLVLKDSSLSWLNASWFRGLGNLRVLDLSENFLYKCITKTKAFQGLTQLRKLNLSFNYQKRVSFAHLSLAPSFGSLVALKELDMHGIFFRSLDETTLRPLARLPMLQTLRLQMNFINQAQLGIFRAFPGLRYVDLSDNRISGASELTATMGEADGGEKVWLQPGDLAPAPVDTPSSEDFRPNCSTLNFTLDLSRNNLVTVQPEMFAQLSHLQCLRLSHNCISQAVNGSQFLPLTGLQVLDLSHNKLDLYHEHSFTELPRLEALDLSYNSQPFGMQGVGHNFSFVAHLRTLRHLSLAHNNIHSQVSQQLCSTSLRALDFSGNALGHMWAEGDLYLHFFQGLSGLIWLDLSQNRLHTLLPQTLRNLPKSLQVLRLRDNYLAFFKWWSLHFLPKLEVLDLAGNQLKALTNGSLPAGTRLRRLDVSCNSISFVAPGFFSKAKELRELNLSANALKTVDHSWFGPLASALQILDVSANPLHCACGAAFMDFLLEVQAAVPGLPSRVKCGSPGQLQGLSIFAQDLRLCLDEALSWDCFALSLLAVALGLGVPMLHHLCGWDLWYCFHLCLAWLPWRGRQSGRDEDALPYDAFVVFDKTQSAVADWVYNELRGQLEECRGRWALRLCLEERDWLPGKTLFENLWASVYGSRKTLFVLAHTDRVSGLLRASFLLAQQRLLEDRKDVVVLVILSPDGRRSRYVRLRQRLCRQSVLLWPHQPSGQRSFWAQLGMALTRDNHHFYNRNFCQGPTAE
Kind of assay: TLR9 inhibition reporter assay (HEK-Blue cells, SEAP reporter, ODN2006 stimulation). Conditions: HEK-Blue cells overexpressing human TLR9, SEAP reporter, ODN2006 5 nM. The essentials: as §1

Structures are written as SMILES.

In the case of `COCCC(=O)N1CCCC(c2ccc3[nH]c(-c4cc(C)nc(C)c4)c(C(C)C)c3c2)C1` (stereo not drawn) [Example 207], the IC50 is 24 nM against human TLR7, 97 nM against human TLR8 and 43500 nM at human TLR9.
The like results for `Cc1c(-c2[nH]c3ccc(C4CN(C5COC5)C4)cc3c2C(C)C)cn2ncnc2c1C` [Example 544] were, in that order, 5 nM, 12 nM and 21000 nM.
The like results for `Cc1c(-c2[nH]c3ccc(C4CC(N(C)CCS(C)(=O)=O)C4)cc3c2C(C)C)cn2ncnc2c1C` (stereo not drawn) [Example 586] were, in that order, 13 nM, 3.8 nM and 44000 nM.
The matching figures for `Cc1cc(-c2[nH]c3ccc(C4CCC(C(=O)N5CCCCC5)CC4)cc3c2C(C)C)cn2ncnc12` (single isomer, unassigned) [Example 160]: 9 nM, 154 nM and 30300 nM.
With `CNC(=O)CN1CCOC(c2ccc3[nH]c(-c4cc(C)nc(C)c4)c(C(C)C)c3c2)C1` (stereo not drawn) [Example 323], the figures for the 50% inhibitory concentration (IC50) at human TLR7, against human TLR8 and against human TLR9 were 35 nM, 54 nM and > 50000 nM, respectively.
The like results for `CNCC(=O)N1CC(c2ccc3[nH]c(-c4cc(OC)c5ncnn5c4)c(C(C)C)c3c2)C1` [Example 268] were, in that order, 0.72 nM, 5.9 nM and 396 nM.
The matching figures for `COCCN1CCOC(c2ccc3[nH]c(-c4cc(C)nc(C)c4)c(C(C)C)c3c2)C1` (stereo not drawn) [Example 352]: 42 nM, 15 nM and 3700 nM.
The matching figures for `CCc1c(-c2ccc(OC)c(OC)c2)[nH]c2ccc(CN3CC4CNCC4C3)cc12` (stereo not drawn) [Example 391]: 164 nM, 354 nM and 527 nM.
As for `Cc1cc(-c2[nH]c3ccc(C4CN(C(=O)CN(C)C)CCO4)cc3c2C(C)C)cc(C)n1` (stereo not drawn) [Example 335], the half-maximal inhibitory concentration (IC50) at human TLR7 amounted to 5 nM; at human TLR8, 12 nM; at human TLR9, 729 nM.
The like results for `Cc1cc(-c2[nH]c3ccc(C4CCC(CN(C)C)CC4)cc3c2C(C)C)cc(C)n1` (stereo not drawn) [Example 176, 1-(4-(2-(2,6-dimethylpyridin-4-yl)-3-isopropyl-1H-indol-5-yl)cyclohexyl)-N,N-dimethylmethanamine] were, in that order, 26 nM, 55 nM and 8890 nM.
As to `CNC(=O)CN1CCCC(c2ccc3[nH]c(-c4cc(OC)c5ncnn5c4)c(C(C)C)c3c2)C1` (stereo not drawn) [Example 228], the IC50 is 2 nM at human TLR7, 10 nM against human TLR8 and 4870 nM at human TLR9.
The matching figures for `Cc1c(-c2[nH]c3ccc(C4CNC(C)(C)CO4)cc3c2C(C)C)cn2ncnc2c1C` (stereo not drawn) [Example 371]: 0.92 nM, 1.3 nM and 15500 nM.
The matching figures for `COc1cc(-c2[nH]c3ccc(C4CCCN(CCS(C)(=O)=O)C4)cc3c2C(C)C)cn2ncnc12` (stereo not drawn) [Example 253]: 5 nM, 4.4 nM and 6220 nM.
The matching figures for `Cc1cc(-c2[nH]c3ccc(C4CCC(N5CCOCC5)CC4)cc3c2C(C)C)cn2ncnc12` (stereo not drawn) [Example 102]: 0.23 nM, 0.71 nM and 1890 nM.
On to `COc1cc(-c2[nH]c3ccc(C4CCC(N5CC[C@@H](N(C)C)C5)CC4)cc3c2C(C)C)cn2ncnc12` (stereo partly drawn) [Example 30], for which the IC50 on human TLR7 turned out to be 3 nM; against human TLR8, 5 nM; against human TLR9, 824 nM.
The like results for `Cc1c(-c2[nH]c3ccc(C4CCC(NC5COC5)CC4)cc3c2C(C)C)cn2ncnc2c1C` (single isomer, unassigned) [Example 85] were, in that order, 0.35 nM, 0.53 nM and 2880 nM.
The matching figures for `COc1cc(-c2[nH]c3ccc(C4CCC(N(C)C5CC5)CC4)cc3c2C(C)C)cn2ncnc12` (stereo not drawn) [Example 13]: 1 nM, 4.8 nM and 2810 nM.
The like results for `Cc1c(-c2[nH]c3ccc(C4CC5CN(CC(=O)N(C)C)CC5C4)cc3c2C(C)C)cn2ncnc2c1C` (stereo not drawn) [Example 507] were, in that order, 3 nM, 14 nM and 8180 nM.
Take `CC(C)c1c(-c2ccnc3[nH]ncc23)[nH]c2ccc(C(C)C3CCNCC3)cc12` (stereo not drawn) [Example 423]: the concentration for half-maximal inhibition (IC50) against human TLR7 stood at 34 nM; on human TLR8, 16 nM; against human TLR9, 2080 nM.
Consider `Cc1c(-c2[nH]c3ccc(C4CNC(C)(C)CO4)cc3c2C(C)C)cn2ncnc2c1C` (stereo not drawn) [Example 370], for which the IC50 at human TLR7 was 2 nM; at human TLR8, 0.35 nM; on human TLR9 it was 14800 nM.
Take `COc1cc(-c2[nH]c3ccc(C4CN(C5COC5)C4)cc3c2C(C)C)cn2ncnc12` [Example 274]: the IC50 was 1 nM at human TLR7, 2.7 nM at human TLR8 and 3880 nM on human TLR9.
